“Also recorded” adds a separate entry of the source.
Columns and labels:
[1] = test system: HUVEC; assay: Agonist-enhanced neutrophil adherence to HUVEC; assay type: cell-based, human; conditions: 20 μmol/l, 1 hr pre-treatment, TNF 4 hr
Protocol: FIG. 11 is a representation showing effect of β-oxa; β-thia and natural PUFA on TNF-enhanced neutrophil adherence to HUVEC. HUVEC were pre-treated with the fatty acids (20 μmol/l) for 60 min at 37° C. before being stimulated with TNF (125 U/200 μl medium) for 4 hr at 37° C. The cells were then co-incubated with neutrophils (5×10^5 cells/well) at 37° C. for 30 min and the degree of neutrophil adherence quantitated. The results are expressed as % of control and represent the mean±SEM of three separate experiments each performed in triplicate. * p<0.05, ***p<0.001, for significant differences between pre-treatment with fatty acid and control (one-way analysis of variance followed by the Dunnett test for multiple comparisons).
Adhesion of neutrophils, prepared by the rapid-single-step method (Ferrante et al, J. Immun. Methods 36:109-117, 1980), to HUVEC isolated from umbilical cords was carried out essentially as described (Huang et al, 1997 supra).
The magnitude of the suppressive effect of -MP3 was dependent on-pre-treatment time and concentration with significant effects observed with a pre-treatment time of 1 hr and a concentration of ≧5 μmol/l.

[2] = test system: IκBα; assay: TNF-induced degradation of IκBα in HUVEC (Western blot); assay type: cell-based; conditions: Homo sapiens, 20 μmol/l, 30 min pre-treatment, TNF 10 min
Protocol: FIG. 17 is a representation showing (A) the effect of MP3 (β-oxa 23:4n-6) and DHA on TNF-induced degradation of IκBα in HUVEC. Cells were pre-treated with the fatty acids (20 μmol/l) for 30 min and then stimulated with TNF (125 U/ml) for 10 min. After cell lysis the proteins were analyzed by Western blots using anti-IκBα antibodies. (B) The effects of β-oxa-23:4n-6 on TNF-induced activation of transcriptional factor, NFκB in HUVEC. Cells were pre-treated with β-oxa-23:4n-6 (20 μmol/l) for 30 min and then stimulated with TNF for 2 hr. After cell lysis, nuclear fractions were prepared, nuclear proteins separated by SDS PAGE (12% w/v gel), transferred to nitrocellulose and probed with an anti-NFκB p65 antibody (Santa Cruz). […] (C) The effect of β-oxa 23:4n-6 on TNF-stimulated activation of IKK. Cells were pre-treated with β-oxa 23:4n-6 (20 μmol/l) for 30 min and then stimulated with TNF for 5 min. After cell lysis IKK was immunoprecipitated with anti-IKKα antibody and kinase activity determined. […]
Proteins (50 μg) were separated by SDS PAGE (12% w/v gel), transferred to nitrocellulose and probed with an anti-NFκB p65 or anti-IκBα antibody (Santa Cruz Biotech, Santa Cruz, Calif.). Immunocomplexes were detected by enhanced chemiluminescence (Hii et al, 1998 supra).

[3] = molecular target: T1, PKC isozyme ε (Homo sapiens, UniProt Q02156); assay: PMA-induced PKC translocation in HL-60 cells (Western blot); assay type: cell-based; design: key: +++: strong inhibition of PKC activation; −: no inhibition of PKC activation; conditions: 20 μM, 60 min
T1 construct: endogenous in cells; host or cells: HL-60
T1 sequence (Q02156 1-737): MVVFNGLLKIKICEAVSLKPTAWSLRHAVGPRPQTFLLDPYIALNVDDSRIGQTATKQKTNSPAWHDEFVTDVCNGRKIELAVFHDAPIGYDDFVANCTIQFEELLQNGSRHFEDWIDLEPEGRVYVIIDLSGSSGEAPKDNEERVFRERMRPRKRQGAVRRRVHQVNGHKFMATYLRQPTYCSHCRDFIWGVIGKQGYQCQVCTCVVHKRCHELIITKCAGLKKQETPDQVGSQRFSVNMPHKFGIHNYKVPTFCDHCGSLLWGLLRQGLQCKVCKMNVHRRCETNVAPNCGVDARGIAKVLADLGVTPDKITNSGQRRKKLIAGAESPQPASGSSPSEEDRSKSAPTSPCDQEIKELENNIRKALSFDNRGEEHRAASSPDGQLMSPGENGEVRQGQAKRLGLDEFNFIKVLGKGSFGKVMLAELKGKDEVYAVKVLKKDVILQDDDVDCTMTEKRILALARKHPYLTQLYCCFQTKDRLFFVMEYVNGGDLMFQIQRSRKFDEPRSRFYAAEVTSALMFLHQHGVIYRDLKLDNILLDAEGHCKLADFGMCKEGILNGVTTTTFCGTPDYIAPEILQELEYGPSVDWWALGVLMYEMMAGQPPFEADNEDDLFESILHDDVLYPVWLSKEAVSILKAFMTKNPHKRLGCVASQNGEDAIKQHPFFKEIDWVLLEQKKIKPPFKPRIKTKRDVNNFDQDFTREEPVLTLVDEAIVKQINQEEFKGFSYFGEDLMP
Protocol: (§1) The effects of nitroanalogs of PUFAs on PKC activation were determined. Lx compounds at a concentration of 20 μM were incubated with the HL-60 cell line (final condition 10^6 cells/ml) for 60 min. PKC activation was then attempted to be induced by PMA. PKC enzyme translocation was quantitated by Western blot.

[4] = molecular target: T2, PKC isozyme α (Homo sapiens, UniProt P17252); assay: as above; assay type: cell-based; design: key: +++: strong inhibition of PKC activation; −: no inhibition of PKC activation; conditions: 20 μM, 60 min
T2 construct: endogenous in cells; host or cells: HL-60
Protocol: as §1

[5] = molecular target: T3, PKC isozyme δ (Homo sapiens, UniProt Q05655); assay: as above; assay type: cell-based; design: key: +++: strong inhibition of PKC activation; −: no inhibition of PKC activation; conditions: 20 μM, 60 min
T3 construct: endogenous in cells; host or cells: HL-60
Protocol: as §1

[6] = molecular target: T4, PKC isozyme β2 (Homo sapiens, UniProt P05771); assay: as above; assay type: cell-based; design: key: +++: strong inhibition of PKC activation; −: no inhibition of PKC activation; conditions: 20 μM, 60 min
T4 construct: endogenous in cells; host or cells: HL-60
Protocol: as §1

[7] = test system: cancer cells; assay: Killing of cancer cells; assay type: cell-based
[8] = test system: neutrophil NADPH oxidase; assay: Neutrophil respiratory burst (NADPH oxidase activation, chemiluminescence); assay type: cell-based, human; conditions: 20 μM, 10 min, lucigenin-dependent chemiluminescence
Protocol: The structure of PT2 is shown in (c) above. In this screening assay, neutrophils were prepared from the blood of healthy volunteers. Freshly collected blood was layered onto a Hypaque-Ficoll medium of density 1.114 and centrifuged at 400 g for 30 mins at room temperature. After centrifugation, the leukocytes resolved into two distinct bands, with neutrophils being present in the second band (Ferrante and Thong, J. Immun. Methods 48:81-85, 1982).
Activation of the neutrophil NADPH oxidase was measured by lucigenin-dependent chemiluminescence following a 10 min incubation of PT2 (20 μM, final concentration) with 1×10^6 neutrophils from different donors (Power et al, J. Immunol. 159:2952-2959, 1997). Arachidonic acid (20:4, n-6) was used as a positive stimulator of the oxidase
Neutrophil respiratory burst was determined as previously described (Li et al, J. Clin. Invest. 97:1605-1609, 1996).

[9] = PQ (phenylquinolic acid) writhing test; assay type: in vivo; conditions: intraperitoneal, 30 min before pain stimulus
Protocol: (§2) Investigations of the effects of PT2 on pain induced by phenylquinolic acid (PQ writhing) and formalin have been made. In both the PQ writhing test (FIG. 3) and the formalin algesia test (FIG. 4), PT2 administered by intraperitoneal inoculation reduced pain and compared favourably with pain reduction by aspirin (oral, 100 mg/kg). In these tests, the EPUFA was administered 30 min before the pain stimulus and effects recorded over the following 20 min.

[10] = Formalin-induced pain test (hind paw licking time); assay type: in vivo; conditions: for % inhibition of pain response, Phase I (0-5 mins) / % inhibition of pain response, Phase II (15-20 mins): 30 min prior to formalin, mean of 5 animals
Protocol: as §2
Investigations of PT2 in the formalin-induced analgesia model looking specifically at the biphasic response have also been undertaken and are shown in Table 1. It is well documented that in this model, aspirin suppresses only pain related to the inflammatory process (15-20 mins post-administration of formalin), while morphine suppresses pain in both phases of the response (0-5 min and 15-20 min).
Compounds were administered intraperationedly (ip) 30 min prior to the administration of formalin (0.02 ml, 1% solution) via subplantar injection into the right hind paw. Reduction of the induced hind paw licking time recorded during the following 0-5 min period (Phase I response) or 15-20 min period (Phase II response) was determined. The data in Table 1 are the mean responses of 5 animals in each group.

[11] = test system: E-selectin; assay: Adhesion molecule expression on HUVEC (ELISA, mRNA slot blot); assay type: cell-based, human; conditions: 20 μmol/l, 60 min pre-treatment
Protocol: (§3) FIG. 13 is a representation showing effect of MP3 (β-oxa-23:4n-6) and 20:4n-6 on time-related changes in TNF-α-induced E-selectin, ICAM-1 and VCAM-1 expression on HUVEC. HUVEC were pre-treated with 20 μmol/l β-oxa-23:4n-6 (closed triangles), 20 μmol/l 20:4n-6 (open squares), or DPC (control) for 60 min and then further incubated with TNF-α (125 U/200 μl medium) for up to 24 hr. The expression of E-selectin, ICAM-1 and VCAM-1 adhesion molecules was determined by ELISA. The results are expressed as % of control and represent the mean±SEM of three separate experiments each performed in triplicate. * p<0.05, **p<0.01, ***p<0.001, for significant differences between pre-treatment with fatty acid and corresponding control at a particular time point (one-way analysis of variance followed by the Dunnett test for multiple comparisons). Inset: The effect of β-oxa-23:4n-6 on TNF-α-induced expression of E-selectin mRNA in HUVEC. HUVEC were pre-incubated with β-oxa-23:4n-6 (20 μmol/l) or DPC (control) in 1 ml of medium at 37° C. for 60 min. After the addition of TNF-α, the cells were further incubated at 37° C. for 2 hr. E-selectin mRNA expression was then determined and the results expressed as relative %. Results are the mean±SEM of three separate experiments each performed in quadruplicate. *p<0.0001, for significant differences between pre-treatment with β-oxa-23:4n-6, and control (two-tailed Student's t-test for unpaired data).
(§4) HUVEC were stimulated with TNF, bacterial lipopolysaccharide (LPS) or PMA for 24 hr. Expression of E-selectin, ICAM-1 and VCAM-1 was determined by an enzyme-linked immunosorbent assay (ELISA) or as mRNA using a slot blot technique (Huang et al 1997 supra).

[12] = test system: VCAM-1; assay: Adhesion molecule expression on HUVEC (ELISA); assay type: cell-based, human; conditions: 20 μmol/l, 60 min pre-treatment
Protocol: as §3, §4

[13] = test system: ICAM-1; assay: Adhesion molecule expression on HUVEC (ELISA); assay type: cell-based, human; conditions: 20 μmol/l, 60 min pre-treatment
Protocol: as §3, §4

[14] = In vitro assays (not specified)

T4 sequence (P05771 1-673 isoform P05771-2): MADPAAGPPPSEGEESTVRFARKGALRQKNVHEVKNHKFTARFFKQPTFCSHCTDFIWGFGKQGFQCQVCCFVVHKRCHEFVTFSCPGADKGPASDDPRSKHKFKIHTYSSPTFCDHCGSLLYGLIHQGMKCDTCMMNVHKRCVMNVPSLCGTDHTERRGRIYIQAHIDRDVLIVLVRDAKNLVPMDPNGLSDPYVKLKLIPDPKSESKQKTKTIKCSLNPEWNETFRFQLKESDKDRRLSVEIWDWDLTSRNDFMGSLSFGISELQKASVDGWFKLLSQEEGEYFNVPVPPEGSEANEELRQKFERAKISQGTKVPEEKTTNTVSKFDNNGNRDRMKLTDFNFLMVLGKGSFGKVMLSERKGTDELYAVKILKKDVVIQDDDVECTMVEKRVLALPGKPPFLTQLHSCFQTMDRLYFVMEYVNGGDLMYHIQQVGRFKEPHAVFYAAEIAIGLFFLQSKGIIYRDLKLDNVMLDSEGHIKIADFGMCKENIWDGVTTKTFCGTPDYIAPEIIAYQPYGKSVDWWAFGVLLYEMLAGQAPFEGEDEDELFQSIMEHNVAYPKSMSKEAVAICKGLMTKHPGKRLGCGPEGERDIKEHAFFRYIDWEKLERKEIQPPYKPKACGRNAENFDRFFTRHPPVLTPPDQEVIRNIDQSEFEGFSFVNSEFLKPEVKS
T3 sequence (Q05655 whole entry): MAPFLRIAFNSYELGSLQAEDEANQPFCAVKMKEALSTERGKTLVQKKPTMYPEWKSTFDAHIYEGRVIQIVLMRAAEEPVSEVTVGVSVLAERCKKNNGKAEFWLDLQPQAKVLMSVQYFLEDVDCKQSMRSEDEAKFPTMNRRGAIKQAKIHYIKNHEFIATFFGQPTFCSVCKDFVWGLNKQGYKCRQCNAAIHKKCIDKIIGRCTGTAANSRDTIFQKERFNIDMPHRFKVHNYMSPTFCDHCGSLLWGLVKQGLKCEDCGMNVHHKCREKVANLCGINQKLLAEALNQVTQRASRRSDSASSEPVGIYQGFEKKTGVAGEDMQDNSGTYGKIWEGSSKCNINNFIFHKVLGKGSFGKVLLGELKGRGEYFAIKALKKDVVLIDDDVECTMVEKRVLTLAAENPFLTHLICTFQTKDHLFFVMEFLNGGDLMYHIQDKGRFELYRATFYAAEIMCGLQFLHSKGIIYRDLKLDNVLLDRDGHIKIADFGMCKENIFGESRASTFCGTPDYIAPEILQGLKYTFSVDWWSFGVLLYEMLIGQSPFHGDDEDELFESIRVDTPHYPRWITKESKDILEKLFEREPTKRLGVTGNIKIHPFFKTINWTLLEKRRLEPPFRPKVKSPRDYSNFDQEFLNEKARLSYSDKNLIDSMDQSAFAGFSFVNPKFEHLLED

CC/C=C\C/C=C\C/C=C\C/C=C\C/C=C\C/C=C\CCC(=O)O [22:6n-3, docosahexaenoic acid, reference compound]
Inhibition of TNF-α-enhanced neutrophil adhesion to HUVEC [1]: no significant effect
inhibition at 20 µM [2]: < 50%

CCCCCCCCCCCCCCCCCC(CCC(=O)O)(CCC(=O)O)[N+](=O)[O-] [Lx8]
Inhibition of PKC activation, isozyme ε [3]: +++
Inhibition of PKC activation, isozyme α [4]: +++
Inhibition of PKC activation, isozyme δ [5]: +++
Inhibition of PKC activation, isozyme β2 [6]: +++
Killing of cancer cells [7]: kills cells very poorly

CCCCC/C=C\C/C=C\C/C=C\C/C=C\CCCC(CCC(=O)O)(CCC(=O)O)[N+](=O)[O-] [Lx9]
Inhibition of PKC activation, isozyme α [4]: −
Inhibition of PKC activation, isozyme β2 [6]: +++
Killing of cancer cells [7]: strong in killing cancer cells

CCCCC/C=C\C/C=C\C/C=C\C/C=C\CCCC(=O)NC(CC(=O)O)C(=O)O (centres unmarked) [PT2]
Stimulation of the neutrophil respiratory burst [8]: lacks the ability to stimulate the neutrophil respiratory burst
Pain reduction in PQ writhing test [9]: reduced pain
% inhibition of pain response, Phase I (0-5 mins) ([10]; 30 mg/kg ip): 0%
% inhibition of pain response, Phase II (15-20 mins) ([10]; 30 mg/kg ip): 41%
% inhibition of pain response, Phase I (0-5 mins) ([10]; 100 mg/kg ip): 30%
% inhibition of pain response, Phase II (15-20 mins) ([10]; 100 mg/kg ip): 97%
Pain reduction in formalin test ([10]; intraperitoneal, 30 min before pain stimulus): reduced pain; also recorded: acts similarly to aspirin in having its major effect on the later phase of the pain response

CCCCC/C=C\C/C=C\C/C=C\C/C=C\CCCC(=O)O [arachidonic acid, reference compound]
Stimulation of the neutrophil respiratory burst [8]: able to elicit a strong respiratory burst
Suppression of TNF-α-induced E-selectin expression on HUVEC [11]: no significant effect
Inhibition of TNF-α-enhanced neutrophil adhesion to HUVEC [1]: no significant effect
Suppression of TNF-α-induced VCAM-1 expression on HUVEC [12]: no significant effect
Suppression of TNF-α-induced ICAM-1 expression on HUVEC [13]: no significant effect

β-oxa-23:0 [MP1]
Biological activity in in vitro assays [14]: biologically inactive
